# Data reported in patent US4960900A, “Oxyimino derivatives of thiazole, method of preparation and use in therapy” (priority 1987, dated 1990).
# Where two headings read alike, the source gives them in different places.
# Tests used:
# male mice [1] = test: in vivo; assay type: in vivo
# Protocol: (§1) The neurotoxic properties were assessed on male mice by the so-called "Rota-rod" test carried out thirty minutes after the oral administration of the substances to be studied. The animals (divided into groups each containing ten male mice per dose and per product) are installed on the rod and their fall is observed over the next two minutes.
# (§2) The results obtained are expressed in the form of the 50% neurotoxic dose (TD50) per os, which is the dose causing 50% of the animals to fall.
# (§3) Protection index: TD50 per os/ED50 per os
# (§4) *dose determined per os on groups each containing ten male mice.
# in vivo [2] = assay type: in vivo; settings: mouse, in vivo, po
# Protocol: as §1, §2, §3, §4
# [3] = system: convulsions induced by pentetrazole (PTZ); test: Anticonvulsant properties: convulsions induced by pentetrazole (PTZ), oral, mice; assay type: in vivo; settings: per os, male mice, 30 min after administration, pentetrazole 125 mg/kg i.p.; for ED50: Mus musculus, po, 0.5 h, read-out: ED50 in respect of convulsions induced by PTZ
# Excerpt: (§7) The anticonvulsant properties were investigated on male mice, thirty minutes after the oral administration of the substances to be studied, by the induction of convulsive seizures.
# male mice [4] = test: in vivo; settings: for LD50: male mice
# Protocol: (§5) The toxicity of the products to be studied was investigated by the oral administration, using an esophageal tube, of each of the said products to male mice with a body weight of 18 to 22 g, divided into groups each containing 10 to 20 animals. The mortality was recorded over a 14-day period.
# (§6) The results obtained, which are expressed in the form of LD50 in mg/kg, are collated in Table II below.
# in vivo [5] = settings: mouse, in vivo, po; for selectivity ratio: LD50 per os/ED50 per os
# Protocol: as §5, §6
# [6] = system: convulsions induced by supramaximal electroshock (MCE); test: Anticonvulsant properties: convulsions induced by supramaximal electroshock (MCE), oral, mice; assay type: in vivo; settings: per os, male mice, 30 min after administration; for ED50: Mus musculus, po, 0.5 h, read-out: ED50 in respect of convulsions induced by MCE
# Protocol: as §7
# These seizures are caused either by the intraperitoneal injection of pentetrazole (125 mg/kg) or by electrical stimulation of the cornea (supra-maximal electroshock, abbreviated to MCE).
# MCE: supramaximal electroshock;
# *: ED50 in mg/kg, determined per os on groups each containing ten
# [7] = LD50, Table II, male mice, 14 days
# [8] = LD50, Table IV, per os, male mice
# [9] = versus sodium valproate and trimethadione
# [10] = TD50 per os/ED50 per os, MCE, read-out: Protection index MCE
# [11] = TD50 per os/ED50 per os, PTZ, read-out: Protection index PTZ
# [12] = Rota-rod, per os, male mice, 30 min after administration, read-out: TD50
structure (smiles),measurement,setting,value
"CON=C(C)c1scnc1C [Ex. 1, 5-(1-methoxyiminoethyl)-4-methylthiazole]",protection indices compared with the reference products,"male mice [1]; mouse, in vivo",better than those of the reference products
same,selectivity ratio,in vivo [2]; Protection index MCE,4.1
same,selectivity ratio,in vivo [2]; Protection index PTZ,5.6
same,TD50 at 0.5 h,in vivo [2]; TD50,347 mg/kg
same,ED50,[3],62 mg/kg
same,therapeutic indices compared with the reference products,"male mice [4]; mouse, in vivo",better than those of the reference products
same,LD50 at 336 h,in vivo [5]; [7],740 mg/kg
same,LD50 at 336 h,in vivo [5]; [8],740 mg/kg
same,selectivity ratio,"in vivo [5]; Therapeutic index MCE, MCE",8.8
same,selectivity ratio,"in vivo [5]; Therapeutic index PTZ, PTZ",11.9
same,ED50,[6],84 mg/kg
"CON=C(C)c1scnc1C.Cl [Ex. 2, 5-(1-methoxyiminoethyl)-4-methylthiazole hydrochloride]",Protection index MCE,"male mice [1]; mouse, in vivo, po",2.7
same,Protection index PTZ,"male mice [1]; mouse, in vivo, po",3.8
same,TD50 at 0.5 h,in vivo [2]; TD50,270 mg/kg
same,ED50,[3],72 mg/kg
same,Therapeutic index MCE,"male mice [4]; LD50 per os/ED50 per os, MCE",10.0
same,Therapeutic index PTZ,"male mice [4]; LD50 per os/ED50 per os, PTZ",13.9
same,LD50 at 336 h,in vivo [5]; [7],1000 mg/kg
same,LD50 at 336 h,in vivo [5]; [8],1000 mg/kg
same,ED50,[6],100 mg/kg
CCON=C(C)c1scnc1C [Ex. 4],ED50,[3],120 mg/kg
same,LD50 at 336 h,in vivo [5]; [7],1000 mg/kg
same,ED50,[6],150 mg/kg
CCON=C(C)c1scnc1C [Ex. 5],protection indices compared with the reference products,"male mice [1]; mouse, in vivo",better than those of the reference products
same,selectivity ratio,in vivo [2]; Protection index MCE,6.3
same,selectivity ratio,in vivo [2]; Protection index PTZ,7.5
same,TD50 at 0.5 h,in vivo [2]; TD50,750 mg/kg
same,ED50 in respect of convulsions induced by PTZ,[3]; 30 min,100 mg/kg
same,therapeutic indices compared with the reference products,"male mice [4]; mouse, in vivo",better than those of the reference products
same,LD50 at 336 h,in vivo [5]; LD50,1000 mg/kg
same,selectivity ratio,"in vivo [5]; Therapeutic index MCE, MCE",8.3
same,selectivity ratio,"in vivo [5]; Therapeutic index PTZ, PTZ",10
same,ED50 in respect of convulsions induced by MCE,[6]; 30 min,120 mg/kg
CC(=NOC(C)C)c1scnc1C [Ex. 6],ED50,[3],112 mg/kg
same,LD50 at 336 h,in vivo [5]; [7],> 1000 mg/kg
same,ED50,[6],> 200 mg/kg
CC(=NOC(C)C)c1scnc1C [Ex. 7],ED50 in respect of convulsions induced by PTZ,[3]; 30 min,140 mg/kg
same,LD50,"male mice [4]; Table II, oral, 14 days",> 1000 mg/kg
same,ED50 in respect of convulsions induced by MCE,[6],> 200 mg/kg
"CCCCON=C(C)c1scnc1C [Ex. 8, 5-(1-n-butoxyiminoethyl)-4-methylthiazole]",ED50,[3],> 200 mg/kg
same,LD50 at 336 h,in vivo [5]; [7],750 mg/kg
same,ED50,[6],> 200 mg/kg
"CCCCON=C(C)c1scnc1C.Cl [Ex. 9, 5-(1-n-butoxyiminoethyl)-4-methylthiazole hydrochloride]",selectivity ratio,in vivo [2]; Protection index MCE,4
same,selectivity ratio,in vivo [2]; Protection index PTZ,4.4
same,TD50 at 0.5 h,in vivo [2]; TD50,600 mg/kg
same,ED50,[3],138 mg/kg
same,LD50 at 336 h,in vivo [5]; [7],> 1000 mg/kg
same,LD50 at 336 h,in vivo [5]; [8],> 1000 mg/kg
same,selectivity ratio,"in vivo [5]; Therapeutic index MCE, MCE",> 6.7
same,selectivity ratio,"in vivo [5]; Therapeutic index PTZ, PTZ",> 7.3
same,ED50,[6],150 mg/kg
CC(=NOCc1ccccc1F)c1scnc1C [Ex. 13],protection indices compared with the reference products,male mice [1]; [9],better than those of the reference products
same,selectivity ratio,in vivo [2]; [10],4
same,selectivity ratio,in vivo [2]; [11],7.1
same,TD50 at 0.5 h,in vivo [2]; [12],750 mg/kg
same,ED50,[3],105 mg/kg
same,LD50,"male mice [4]; Table IV, per os, 20160 min",> 1000 mg/kg
same,therapeutic indices compared with the reference products,male mice [4]; [9],better than those of the reference products
same,LD50 at 336 h,in vivo [5],> 1000 mg/kg
same,selectivity ratio,"in vivo [5]; Therapeutic index MCE, MCE",> 5.4
same,selectivity ratio,"in vivo [5]; Therapeutic index PTZ, PTZ",> 9.5
same,ED50,[6],184 mg/kg
CC(=NOCc1cccc(Cl)c1)c1scnc1C [Ex. 14],selectivity ratio,in vivo [2]; [11],5.4
same,TD50 at 0.5 h,in vivo [2]; [12],750 mg/kg
same,ED50,[3],140 mg/kg
same,LD50 at 336 h,in vivo [5]; [7],> 1000 mg/kg
same,LD50 at 336 h,in vivo [5]; [8],> 1000 mg/kg
same,selectivity ratio,"in vivo [5]; Therapeutic index PTZ, PTZ",> 7.1
same,ED50,[6],> 200 mg/kg
CC(=NOCc1ccccc1C)c1scnc1C [Ex. 15],ED50,[3],60 mg/kg
same,LD50 at 336 h,in vivo [5]; [7],> 1000 mg/kg
CCOc1ccccc1CON=C(C)c1scnc1C [Ex. 17],ED50,[3],> 200 mg/kg
same,LD50 at 336 h,in vivo [5]; [7],> 1000 mg/kg
same,ED50,[6],> 200 mg/kg
COC(=O)CON=C(C)c1scnc1C [Ex. 18],ED50,[3],> 200 mg/kg
same,LD50 at 336 h,in vivo [5]; [7],> 1000 mg/kg
same,ED50,[6],> 200 mg/kg
CC(=NOCC(=O)O)c1scnc1C [Ex. 19],ED50,[3],> 200 mg/kg
same,LD50 at 336 h,in vivo [5]; [7],> 1000 mg/kg
same,ED50,[6],> 200 mg/kg
CC(=NOCCN(C)C)c1scnc1C [Ex. 20],ED50,[3],> 200 mg/kg
same,LD50 at 336 h,in vivo [5]; [7],> 1000 mg/kg
same,ED50,[6],> 200 mg/kg
CC(=NOCCN1CCCC1)c1scnc1C [Ex. 21],ED50,[3],> 200 mg/kg
same,LD50 at 336 h,in vivo [5]; [7],360 mg/kg
same,ED50,[6],> 200 mg/kg
CC(=NO)c1sc(Cl)nc1C [Ex. 22],ED50,[3],> 200 mg/kg
same,LD50 at 336 h,in vivo [5]; [7],> 1000 mg/kg
same,ED50,[6],> 200 mg/kg
CC(=NO)c1sc(Br)nc1C [Ex. 23],ED50,[3],> 200 mg/kg
same,LD50 at 336 h,in vivo [5]; [7],> 1000 mg/kg
same,ED50,[6],> 200 mg/kg
CON=C(C)c1sc(Cl)nc1C [Ex. 24],ED50,[3],> 200 mg/kg
same,LD50 at 336 h,in vivo [5]; [7],> 1000 mg/kg
same,ED50,[6],> 200 mg/kg
CON=C(C)c1sc(Br)nc1C [Ex. 25],ED50,[3],> 200 mg/kg
same,LD50 at 336 h,in vivo [5]; [7],> 1000 mg/kg
same,ED50,[6],> 200 mg/kg
CON=C(C)c1sc(C)nc1C [Ex. 26],ED50,[3],> 200 mg/kg
same,LD50 at 336 h,in vivo [5]; [7],> 1000 mg/kg
same,ED50,[6],> 200 mg/kg
CON=C(C)c1sc(C)nc1C [Ex. 27],ED50 in respect of convulsions induced by PTZ,[3],> 200 mg/kg
same,LD50,"male mice [4]; Table II, oral, 14 days, 20160 min",1000 mg/kg
same,ED50 in respect of convulsions induced by MCE,[6],> 200 mg/kg
"CC(=NO)c1scnc1C [Ex. 28, 5-(1-hydroxyiminoethyl)-4-methylthiazole]",ED50,[3],126 mg/kg
same,LD50 at 336 h,in vivo [5]; [7],1000 mg/kg
same,ED50,[6],> 200 mg/kg
CC(=NO)c1scnc1C [Ex. 29],ED50 in respect of convulsions induced by PTZ,[3]; 30 min,200 mg/kg
same,LD50,"male mice [4]; Table II, oral, 14 days",1000 mg/kg
same,ED50 in respect of convulsions induced by MCE,[6],> 200 mg/kg
"CN1C(=O)OC(C)(C)C1=O [TRIM, trimethadione, reference compound]",selectivity ratio,in vivo [2]; [10],2
same,selectivity ratio,in vivo [2]; [11],4
same,selectivity ratio,"in vivo [5]; Therapeutic index MCE, MCE",4.4
same,selectivity ratio,"in vivo [5]; Therapeutic index PTZ, PTZ",8.7
same,ED50,[6],500 mg/kg
"CCCC(CCC)C(=O)O [VALP, sodium valproate, reference compound]",selectivity ratio,in vivo [2]; [10],2.8
same,selectivity ratio,in vivo [2]; [11],2.7
same,selectivity ratio,"in vivo [5]; Therapeutic index MCE, MCE",4
same,selectivity ratio,"in vivo [5]; Therapeutic index PTZ, PTZ",4
